The series relates to rat mammary adenocarcinoma cells (ATCC 13762, Mat B cells). Put plainly: MR imaging on a rat tumor model (tumor enhancement). Format: in vivo. On the procedure:
Imaging was done on a rat tumor model. Specifically, rat mammary adenocarcinoma cells (ATCC 13762, Mat B cells) were implanted in Fisher 344 female rats ([…] in 0.5 ml phosphate buffered saline). After 7-9 days, tumors were about 10 mm in diameter and the imaging was done at that point. Imaging was performed using a GE CSI scanner at 2T with a 33 cm bore. A birdcage quadrature coil was used for transmission and receiving. T1 weighted images were obtained (TR 250 ms, TE 18 MS, NEX 16). Rats were imaged prior to injection of contrast agent. […] The rats were then imaged immediately after injection and then at 24 hours.

This is an account of results in patent publication US20040022733A1, “Conjugated lysine copolymers” (priority 2002, published 2004).

As to `O=C([O-])CN(CCN(CC(=O)[O-])CC(=O)O)CCN(CC(=O)[O-])CC(=O)O.[Gd+3]` [Gd-DTPA], for the setting “rat tumor model, standard dose of 0.1 mmol Gd/kG”, the tumor enhancement is reported as 70%. Moreover, the “wash out of tumors” value (rat, in vivo) is reported as “rapidly wash out of tumors”.
